# Key:
# Aurora kinase A = biological target: T1, Aurora kinase A (Homo sapiens, UniProt O14965)
# T1 sequence (O14965 whole entry): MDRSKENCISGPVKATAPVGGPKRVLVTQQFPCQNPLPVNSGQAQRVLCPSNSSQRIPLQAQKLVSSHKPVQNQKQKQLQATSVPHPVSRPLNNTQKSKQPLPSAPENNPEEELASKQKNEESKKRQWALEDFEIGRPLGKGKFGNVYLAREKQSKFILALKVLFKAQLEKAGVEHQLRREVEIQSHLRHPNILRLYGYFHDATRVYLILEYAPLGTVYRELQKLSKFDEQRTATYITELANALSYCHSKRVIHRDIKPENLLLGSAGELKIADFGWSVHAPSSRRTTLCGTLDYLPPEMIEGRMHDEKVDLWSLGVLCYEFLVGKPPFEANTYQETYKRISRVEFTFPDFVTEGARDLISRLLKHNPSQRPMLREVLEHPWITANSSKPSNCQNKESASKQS
# physchem [1] = details: PBS buffer, pH 7.4, Kinetic_solubility
# physchem [2] = details: 1-octanol/phosphate buffer, pH 7.4, logD
# Homo sapiens = species: Homo sapiens; assay: Selectivity ratio of Ki for human His-tagged full length AURKAto Ki for GST-tagged full length ITK (unknown origin)
# [3] = Plasma protein binding in human; assay type: ADME, cell-free; details: read-out: PPB (converted)
# [4] = Apparent permeability across MDCK cells; assay type: ADME, cell-based, Canis lupus familiaris; details: dog
# [5] = buffer, pH 7.4, 24 h, 10000 µM
# [6] = biological target: T2, Tyrosine-protein kinase ITK/TSK (Homo sapiens, UniProt Q08881)
# T2 sequence (Q08881 whole entry): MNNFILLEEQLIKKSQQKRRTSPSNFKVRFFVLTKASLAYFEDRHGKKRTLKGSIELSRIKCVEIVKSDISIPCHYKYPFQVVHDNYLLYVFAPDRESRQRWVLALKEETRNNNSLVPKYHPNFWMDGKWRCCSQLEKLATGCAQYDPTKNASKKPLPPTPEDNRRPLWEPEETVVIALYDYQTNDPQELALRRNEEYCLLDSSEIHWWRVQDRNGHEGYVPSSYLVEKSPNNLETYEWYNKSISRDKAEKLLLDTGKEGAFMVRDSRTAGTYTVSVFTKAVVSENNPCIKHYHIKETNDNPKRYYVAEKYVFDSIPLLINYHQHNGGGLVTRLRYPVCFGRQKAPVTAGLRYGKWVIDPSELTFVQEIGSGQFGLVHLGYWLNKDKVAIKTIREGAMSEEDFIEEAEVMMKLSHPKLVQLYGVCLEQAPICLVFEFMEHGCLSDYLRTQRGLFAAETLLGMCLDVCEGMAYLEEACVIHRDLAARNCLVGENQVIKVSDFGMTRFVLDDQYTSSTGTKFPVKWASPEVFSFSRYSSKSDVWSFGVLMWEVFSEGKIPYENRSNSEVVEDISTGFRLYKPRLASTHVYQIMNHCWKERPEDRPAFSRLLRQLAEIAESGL
# [7] = biological target: T2, Tyrosine-protein kinase ITK/TSK; remark: listed apart in the source
# [8] = octanol/water, pH 7.4, 20 min, 10000 µM
Structure (SMILES),Ki (Aurora kinase A) [µM],"solubility kinetic at 24 h, 10000 µM (physchem [1]) [µM]","logD at 20 min, 10000 µM (physchem [2])",further results
CC1(C)CCc2[nH]nc(C(=O)Nc3cnn(Cc4ccccc4)c3)c2C1,1.7,< 1,4.3,
N#Cc1cccc(Cn2cc(NC(=O)c3n[nH]c4c3CC(c3cn[nH]c3)CC4)cn2)c1 (racemic) [listing 1 of 2 here],,,,Ratio Ki (Homo sapiens): 25
CN(C)CC[C@@H](c1ccccc1)n1cc(NC(=O)c2n[nH]c3cc(-c4cn[nH]c4)ccc23)cn1,0.015,94,,fraction unbound [3]: 0.03
N#Cc1cccc(Cn2cc(NC(=O)c3n[nH]c4cc(-c5cn[nH]c5)ccc34)cn2)c1,,< 1,3.4,Papp [4]: 0.1 ×10⁻⁶ cm/s
O=C(Nc1cnn(Cc2ccccc2)c1)c1n[nH]c2c1CCC1(CCOC1)C2 (racemic),> 5.7,,2.2,Kinetic_solubility [5]: 20 µM
O=C(Nc1cnn(Cc2ccccc2)c1)c1n[nH]c2c1CCC1(CC1)C2,0.18,< 1,3.9,
N#Cc1cccc(Cn2cc(NC(=O)c3n[nH]c4c3CC(c3cn[nH]c3)CC4)cn2)c1 (centres undefined) [listing 1 of 2 here],,,,Ratio Ki (Homo sapiens): 23
CC12Cc3[nH]nc(C(=O)Nc4cnn(Cc5ccccc5)c4)c3CC1C2 (centres undefined),0.054,,,Kinetic_solubility [5]: 1.6 µM
CC1CCc2c(C(=O)Nc3cnn(Cc4ccccc4)c3)n[nH]c2C1 (racemic),1.1,< 1,4,
CC1(CO)CCc2c(C(=O)Nc3cnn(Cc4ccccc4)c3)n[nH]c2C1 (racemic),2.3,77,2.6,
CC12Cc3[nH]nc(C(=O)Nc4cnn(Cc5ccccc5)c4)c3CC1C2 (racemic),0.44,1.3,3.8,
CN(C)CC[C@@H](c1cccc(Cl)c1)n1cc(NC(=O)c2n[nH]c3c2CCC(C)(C)C3)cn1,0.29,25,2.7,
O=C(Nc1cnn(Cc2ccccc2)c1)c1n[nH]c2c1CCC(F)(F)C2,0.95,< 1,3.8,
CN(C)C[C@@H](c1ccccc1)n1cc(NC(=O)c2n[nH]c3c2CCC(C)(C)C3)cn1,0.21,42,2.7,Papp [4]: 8.1 ×10⁻⁶ cm/s
O=C(Nc1cnn(Cc2ccccc2)c1)c1n[nH]c2c1CCC1(CCOC1)C2 (centres undefined),,,,Kinetic_solubility [5]: 60 µM
CC1(CO)CCc2c(C(=O)Nc3cnn(Cc4ccccc4)c3)n[nH]c2C1 (centres undefined),0.2,,,Kinetic_solubility [5]: 83 µM; logD [8]: 2.7
CC1(C)CCc2c(C(=O)Nc3cnn([C@H](c4ccccc4)C4CCNCC4)c3)n[nH]c2C1,0.019,102,1.3,Papp [4]: 0.1 ×10⁻⁶ cm/s
COC1(C)CCc2c(C(=O)Nc3cnn(Cc4ccccc4)c3)n[nH]c2C1 (centres undefined),,,,Kinetic_solubility [5]: 29 µM
N#Cc1cccc(Cn2cc(NC(=O)c3n[nH]c4ccccc34)cn2)c1,0.87,5.8,3,Ratio Ki (Homo sapiens): 20; Ki [6]: 0.043 µM
CC1(C)CCc2c(C(=O)Nc3cnn([C@@H](CCS(C)(=O)=O)c4ccccc4)c3)n[nH]c2C1,2.1,14,2.5,Ratio Ki (Homo sapiens): 340; Papp [4]: 3.2 ×10⁻⁶ cm/s; Ki [6]: 0.0062 µM; IC50 [7]: 0.31 µM
Cc1cccc([C@H](CCN(C)C)n2cc(NC(=O)c3n[nH]c4c3CCC(C)(C)C4)cn2)c1,0.5,72,2.4,Papp [4]: 4.3 ×10⁻⁶ cm/s

# Second part, led by results:
Ki (Aurora kinase A) [µM],"solubility kinetic at 24 h, 10000 µM (physchem [1]) [µM]","logD at 20 min, 10000 µM (physchem [2])",Structure (SMILES),further results
,49,2,CN(C)CC[C@H](c1ccccc1)n1cc(NC(=O)c2n[nH]c3c2CCC(C)(C)C3)cn1,
0.52,,,CC1CCc2c(C(=O)Nc3cnn(Cc4ccccc4)c3)n[nH]c2C1 (centres undefined),
,,2.2,COC1(C)CCc2c(C(=O)Nc3cnn(Cc4ccccc4)c3)n[nH]c2C1 (racemic),Kinetic_solubility [5]: 77 µM
0.48,< 1,4.3,CC1(C)CCc2c(C(=O)Nc3cnn(Cc4ccccc4)c3)n[nH]c2C1,Papp [4]: 7.6 ×10⁻⁶ cm/s
0.78,14,2.6,N#Cc1cccc(Cn2cc(NC(=O)c3n[nH]c4c3CCCC4)cn2)c1,Ratio Ki (Homo sapiens): 26
0.22,,2.4,N#Cc1cccc(Cn2cc(NC(=O)c3n[nH]c4c3CC(c3cn[nH]c3)CC4)cn2)c1 (centres undefined) [listing 2 of 2 here],Ki [6]: 0.0094 µM; IC50 [7]: 2.2 µM
2,13,,O=C(Nc1cnn(Cc2ccccc2)c1)c1n[nH]c2c1CC1CC1C2 (racemic),logD [8]: 2.5
0.87,,2,O=C(Nc1cnn(Cc2ccccc2)c1)c1n[nH]c2c1CC1CC1C2 (centres undefined),Kinetic_solubility [5]: 18 µM
0.21,< 1,,N#Cc1cccc(Cn2cc(NC(=O)c3n[nH]c4c3CC(c3cn[nH]c3)CC4)cn2)c1 (racemic) [listing 2 of 2 here],Ki [6]: 0.0083 µM; IC50 [7]: 1.7 µM; logD [8]: 2.5
2.9,78,2.4,O=C(Nc1cnn(Cc2ccccc2)c1)c1n[nH]c2c1CCC1(COC1)C2,

# Source: ChEMBL document CHEMBL3297697, “Property- and structure-guided discovery of a tetrahydroindazole series of interleukin-2 inducible T-cell kinase inhibitors” (J Med Chem, 2014)
